According to article PMC11428279, “Exploring Structure–Activity Relationships and Modes of Action of Laterocidine” (ACS Central Science, 2024):
≈ marks a conversion by molar mass, not a printed value. Like-named read-outs stand apart in the source and are kept apart here. Bridge positions count the residues as written; N and C are the ends. Square brackets hold non-standard residues; d marks the D form. Peptide text beside a SMILES is read from it. * marks the point of attachment. Octanoyl(7-Me) = CC(C)CCCCCC(=O)*; dOrn = NCCC[C@@H](N)C(=O)O; Nonanoyl = CCCCCCCCC(=O)*; Orn = NCCC[C@H](N)C(=O)O

How the values were obtained:
E. cloacae = assay type: cell-based
Procedure: (§1) MICs for laterocidine and its various analogues were determined by broth microdilution[49] for the following polymyxin-susceptible ATCC and clinical isolates: P. aeruginosa FADDI-PA022, FADDI-PA001, FADDI-PA025, FADDI-PA070, FADDI-PA060; A. baumannii FADDI-AB134, FADDI-AB034, FADDI-AB030, FADDI-AB174, FADDI-AB241; K. pneumoniae FADDI-KP032, FADDI-KP022, BM1, FADDI-KP065, FADDI-KP064, FADDI-KP003; and E. cloacae FADDI-EC001, FADDI-EC003, and FADDI-EC006. Experiments were performed with cation-adjusted Mueller–Hinton broth (CAMHB) in 96-well polystyrene microtiter plates. Wells were inoculated with 100 μL of bacterial suspension prepared in CAMHB (containing ∼10^6 CFU/mL) and 100 μL of CAMHB containing increasing concentrations of polymyxins (0–32 μg/mL). MIC measurements were performed in duplicate, with the MIC being the lowest concentration at which visible growth was inhibited following 18–20 h of incubation at 37 °C. Bacterial killing kinetics was investigated over 24 h as described previously.[50]

[1] = test system: Gram-negative strains of P. aeruginosa, A. baumannii, K. pneumoniae, and E. cloacae; assay type: cell-based
Procedure: as §1

K. pneumoniae = assay type: cell-based
Procedure: as §1

P. aeruginosa = assay type: cell-based
Procedure: as §1

P. aeruginosa PAO1 [2] = assay: MIC; assay type: cell-based; conditions: polymyxin-susceptible reference strain
P. aeruginosa PAO1R [3] = assay: MIC; assay type: cell-based; conditions: polymyxin-resistant paired strain of PAO1
[4] = test system: A. baumannii 5075 (wild type); assay: MIC; assay type: cell-based
A. baumannii 5075R = assay type: cell-based; conditions: lipid A modified with phosphoethanolamine
A. baumannii 5075D = assay type: cell-based; conditions: lacks lipid A in the outer membrane
P. aeruginosa PAO1R [5] = assay: Static time-kill study; assay type: cell-based; conditions: 8 × MIC, over 24 h
Procedure: as §1

P. aeruginosa PAO1 [6] = assay: Static time-kill study; assay type: cell-based; conditions: for time-kill outcome against P. aeruginosa PAO1: 8 × MIC, over 24 h
Procedure: as §1

P. aeruginosa PAO1 [7] = assay: Flow cytometry of bacterial membrane integrity, respiration, polarity and oxidative stress; assay type: cell-based; conditions: 1 h exposure
Procedure: The live cell impermeant fluorophore propidium iodide (PI) (Sigma-Aldrich, Castle Hill, NSW, Australia) was used to assess loss of membrane integrity (Ex/Em 488/660–690 nm) and the redox probe 5-cyano-2,3-ditolyl tetrazolium chloride (CTC) (Sigma-Aldrich, Castle Hill, NSW, Australia) used to assess loss of cellular respiration (Ex/Em 450/630 nm). […] Intracellular oxidative stress was measured using CR-G (CellROX Green) (Sigma-Aldrich, Castle Hill, NSW, Australia, Ex/Em 488/660–690 nm).[58] Appropriately diluted samples (600 μL) were stained separately with 12.5 μM PI, 2.5 mM CTC, 6 μM DiBAC, and 2.5 μM CR-G. Samples stained with both PI and DiBAC were incubated for 2 min and immediately analyzed. Samples stained with both CTC and CR-G were incubated for 45 min at RTP, and excess dye was pelleted out prior to analysis. Fluorescence intensity data were analyzed and log transformed using the NovoExpress software (V2.1, ACEA Biosciences, USA).[34]

E. coli O111:B4 LPS = assay: 1H NMR titration with LPS; assay type: binding; conditions: 23 °C, 50 mM acetate buffer pH 4.5, 1.5 mM peptide, 16 μL of 10 mg/mL LPS
Procedure: NMR samples contained 0.75–2.0 mM laterocidine in a 50 mM acetate (d6) NMR buffer (90% H2O:10% D2O, pH 4.5 or ∼100% D2O, pH 4.5). Experiments were recorded on a Bruker 600 MHz NMR spectrometer equipped with a cryoprobe and Z axis gradient. 2D ^13C HSQC and 2D ^13C–^1H H2BC were recorded using gradients for coherence selection and sensitivity enhancement and additional presaturation of the solvent signal when required. 1D ^1H, 2D ^1H–^1H NOESY (with mixing times 35–200 ms), and 2D ^1H–^1H TOCSY experiments (mixing time 70 ms) used an excitation sculpting, DPFGSE sequence for water suppression.[51] Typical acquisition times for the 2D ^1H–^1H NOESY experiments were 524 ms (t2) and 40 ms (t1). For transferred LPS experiments, NMR data was recorded at 23–25 °C which was optimized for the least amide peak overlap. 2D ^1H–^1H NOESY spectra for the free peptide were also recorded at 23 °C. Spectra were processed with nmrPipe[52] or Topspin and analyzed with Xeasy[53] or NMRFAM Sparky.[54] Backbone assignments were made using the standard sequential NOE based assignment strategy using 2D ^1H–^1H TOCSY and 2D ^1H–^1H NOESY data. Side chain assignments were further aided using the 2D ^13C–^1H H2BC experiment. 1D ^1H STD experiments were recorded using excitation sculpting for water suppression. […]

female Swiss mice = assay: Acute toxicity in mice (maximum tolerable dose); assay type: in vivo; conditions: intravenous bolus via lateral tail vein, free base, N = 3
Procedure: (§2) All animal studies were approved by the Monash University Animal Ethics Committee and involved female Swiss mice (22–28 g, 7-week-old) housed in microisolators within a PC2 animal laboratory. Mice were kept under a 12/12 h dark/light cycle at 20–24 °C and 50–70% ambient humidity.
For the acute toxicity studies, peptide 11 and laterocidine solutions were prepared in 0.9% saline and stored at 4 °C before use. All mice were administered an intravenous bolus of one peptide (mg/kg free base) via a lateral tail vein (≤0.1 mL). Following the injection, mice were released back into their respective home cages and individually monitored for 24 h for signs of clinical toxicity. Mice displaying any signs of toxicity were humanely euthanized according to the recommended Euthanasia/Humane Experimental End point Criteria.

[8] = test system: P. aeruginosa FADDI-PA070; assay: Neutropenic murine bloodstream infection model; assay type: in vivo, P. aeruginosa in mice; conditions: for Bacteria load in blood: 8 mg/kg iv (free base) 2 h postinoculation, neutropenic mice, 4 h time point, N = 3, mean
Procedure: as §2
The neutropenic bloodstream infection model was undertaken as previously described.[39] Mice were rendered neutropenic through intraperitoneal injections of cyclophosphamide administered 4 days (150 mg/kg) and 1 day (100 mg/kg) prior to inoculation. Bloodstream infection was established by administering a 50 μL bolus of early log-phase bacterial suspension (4 × 10^8 CFU/mL). Laterocidine, peptide 11, and polymyxin B solutions were prepared in sterile saline at a concentration of 1 mg/mL (free base). Two hours postinoculation, mice (n = 3) were injected intravenously with either polymyxin B at 4 mg/kg (free base), peptide 11 at 8 mg/kg (free base), laterocidine at 8 mg/kg (free base), or saline (control mice). Blood was collected immediately after (0 h) and 4 h after drug administration, serially diluted with sterile saline, and appropriately diluted samples manually plated on nutrient agar prior to overnight incubation at 37 °C. Colonies were counted manually and the bacterial load (log10 CFU/mL) in the blood of each mouse calculated. In vivo efficacy was calculated as the difference between the log10 CFU/mL blood values of treated and control mice 4 h postdosing (Δlog10 CFU/mL blood = log10 [treated] CFU/mL blood–log10[control] CFU/mL blood).[54]

[9] = test system: human kidney proximal tubular (HK-2) cells; assay: Viability of human kidney proximal tubular cells; assay type: cell-based; conditions: 24 h of treatment, fluorescence microscopy, mean ± SD, n = 3
Excerpt: The fluorescence microscopy method used to culture HK-2 cells and the use of fluorescence microscopy to determine the percent cell viability (%) following peptide treatment are the same as published previously.[59],[60]

[10] = listed as Laterocidine (peptide 1)

SMILES: CC[C@H](C)[C@@H]1NC(=O)[C@@H](NC(=O)[C@H](Cc2c[nH]c3ccccc23)NC(=O)[C@@H](CCCN)NC(=O)CNC(=O)[C@H](CCCN)NC(=O)[C@@H](CCCN)NC(=O)[C@@H](Cc2c[nH]c3ccccc23)NC(=O)[C@@H](Cc2ccc(O)cc2)NC(=O)[C@@H](CO)NC(=O)CCCCCC(C)C)[C@@H](C)OC(=O)CNC(=O)CNC(=O)[C@H](CC(N)=O)NC1=O [Laterocidine] ({Octanoyl(7-Me)}-[dS][dY][dW][dOrn][Orn]G[dOrn]WTINGG; ester 9-C)
- MICs against E. cloacae (range over strains) (E. cloacae): 1 to 2 µg/mL
- MICs against the MDR strains (range) [1]: 1 to 16 µg/mL
- MICs against K. pneumoniae (range over strains) (K. pneumoniae): 1 to 4 µg/mL
- MICs against P. aeruginosa (range over strains) (P. aeruginosa): 4 to 8 µg/mL
- MIC, P. aeruginosa PAO1 (P. aeruginosa PAO1 [2]): 8 µg/mL (≈ 4.98 µM)
- MIC, P. aeruginosa PAO1R (P. aeruginosa PAO1R [3]): 8 µg/mL (≈ 4.98 µM)
- MIC, A. baumannii 5075 S [4]: 8 µg/mL (≈ 4.98 µM)
- MIC, A. baumannii 5075 R (A. baumannii 5075R): 32 µg/mL (≈ 19.9 µM)
- MIC, A. baumannii 5075 R (A. baumannii 5075R; [10]): > 32 µg/mL
- MIC, A. baumannii 5075 D (A. baumannii 5075D): 32 µg/mL (≈ 19.9 µM)
- MIC, A. baumannii 5075 D (A. baumannii 5075D; [10]): > 32 µg/mL
- time-kill outcome against P. aeruginosa PAO1R (P. aeruginosa PAO1R [5]): substantial regrowth occurring at all concentrations
- regrowth at 24 h, P. aeruginosa PAO1 (P. aeruginosa PAO1 [6]; 4 × MIC, 24 h): ~2 log 10 CFU/mL
- time-kill outcome against P. aeruginosa PAO1 (P. aeruginosa PAO1 [6]): bacterial eradication was achieved at 24 h
- membrane integrity (propidium iodide fluorescence) (P. aeruginosa PAO1 [7]; 1 × MIC (2 μg/mL)): no loss of membrane permeability
- metabolic activity (CTC fluorescence) (P. aeruginosa PAO1 [7]; 1 × MIC (2 μg/mL)): unaffected
- intracellular oxidative stress (CellROX Green) (P. aeruginosa PAO1 [7]; 1 × and 8 × MIC): increase at both 1 × and 8 × MIC
- membrane potential (DiBAC fluorescence) (P. aeruginosa PAO1 [7]; 1 × and 8 × MIC): extensive loss of membrane potential at each concentration
- membrane integrity (propidium iodide fluorescence) (P. aeruginosa PAO1 [7]; 8 × MIC (16 μg/mL)): substantial increase in permeability
- metabolic activity (CTC fluorescence) (P. aeruginosa PAO1 [7]; 8 × MIC (16 μg/mL)): markedly reduced
- binding affinity to LPS (line broadening in 1H NMR titration) (E. coli O111:B4 LPS): weak to moderate binding affinity
- maximum tolerable dose (MTD), Iv (Bolus) (female Swiss mice): 13.2 mg/kg
- Bacteria load in blood ([8]; listed as Peptide 1): 16.93%
- Bacteria load in blood ([8]; listed as peptide 1): 16.9%

SMILES: CCCCCCCCC(=O)N[C@H](CO)C(=O)N[C@H](Cc1ccc(O)cc1)C(=O)N[C@H](Cc1c[nH]c2ccccc12)C(=O)N[C@H](CCCN)C(=O)N[C@@H](CCCN)C(=O)NCC(=O)N[C@H](CCCN)C(=O)N[C@@H](Cc1c[nH]c2ccccc12)C(=O)N[C@@H]1C(=O)N[C@@H]([C@@H](C)CC)C(=O)N[C@@H](CC(N)=O)C(=O)NCC(=O)NCC(=O)O[C@@H]1C [Peptide 11] (Nonanoyl-[dS][dY][dW][dOrn][Orn]G[dOrn]WTINGG; ester 9-C)
- MICs against all tested strains (range) ([1]; all tested Gram-negative strains): identical MICs to laterocidine
- MIC, P. aeruginosa PAO1 (P. aeruginosa PAO1 [2]): 2 µg/mL (≈ 1.25 µM)
- MIC, P. aeruginosa PAO1R (P. aeruginosa PAO1R [3]): 2 µg/mL (≈ 1.25 µM)
- MIC, A. baumannii 5075 S [4]: 8 µg/mL (≈ 4.98 µM)
- MIC, A. baumannii 5075 R (A. baumannii 5075R): 32 µg/mL (≈ 19.9 µM)
- MIC, A. baumannii 5075 D (A. baumannii 5075D): 32 µg/mL (≈ 19.9 µM)
- time-kill outcome against P. aeruginosa PAO1R (P. aeruginosa PAO1R [5]): completely inhibiting the growth
- time-kill outcome against P. aeruginosa PAO1R (P. aeruginosa PAO1R [5]; listed as peptide 11): no viable bacteria were detected at 24 h
- time-kill outcome against P. aeruginosa PAO1 (P. aeruginosa PAO1 [6]): substantial bacterial regrowth nevertheless occurred at all concentrations
- maximum tolerable dose (MTD), Iv (Bolus) (female Swiss mice): 13.2 mg/kg
- Bacteria load in blood [8]: 2.70%
- Bacteria load in blood ([8]; listed as peptide 11): 2.7%
- fold increase in antimicrobial activity compared to native laterocidine (peptide 1) ([8]; murine bloodstream infection model, 8 mg/kg): 8 fold

SMILES: CC[C@H](C)CCCCC(=O)N[C@@H](CCN)C(=O)N[C@H](C(=O)N[C@@H](CCN)C(=O)N[C@H]1CCNC(=O)[C@H]([C@@H](C)O)NC(=O)[C@H](CCN)NC(=O)[C@H](CCN)NC(=O)[C@H](CC(C)C)NC(=O)[C@@H](Cc2ccccc2)NC(=O)[C@H](CCN)NC1=O)[C@@H](C)O [polymyxin B, reference compound] (HELM PEPTIDE1{[CC[C@H](C)CCCCC(=O)[*:2]].[Dab].T.[Dab].[Dab].[Dab].[dF].L.[Dab].[Dab].T}$PEPTIDE1,PEPTIDE1,5:R3-11:R2$$$V2.0; N-terminus assumed; bridges inferred)
- MIC, P. aeruginosa PAO1 (P. aeruginosa PAO1 [2]): 0.5 µg/mL (≈ 0.415 µM)
- MIC, P. aeruginosa PAO1R (P. aeruginosa PAO1R [3]): 16 µg/mL (≈ 13.3 µM)
- time-kill outcome against P. aeruginosa PAO1R (P. aeruginosa PAO1R [5]): no viable bacteria detected at 8 × MIC on multiple occasions, including at 24 h
- time-kill outcome against P. aeruginosa PAO1 (P. aeruginosa PAO1 [6]): no viable bacteria were detected at 1 h, rapid and significant regrowth subsequently occurred
- cell viability of HK-2 cells ([9]; 0.01 mM): 74.8 ± 2.6%
- cell viability of HK-2 cells ([9]; 0.1 mM): 6.4 ± 3.6%
- maximum tolerable dose (MTD), Iv (Bolus) (female Swiss mice): 5 mg/kg
